We go through 14 compounds from patent US5874464A, “Conformationally constrained diacylglycerol analogues” (The United States of America as represented by the …, priority 1995, dated 1999).

Where two headings read alike, the source gives them in different places.

Data set [1] concerns the target T1, PK-C α (Homo sapiens, UniProt P17252).
T1 construct: made in house
Description: displacement of bound [3H-20]-phorbol-12,13-dibutyrate (PDBU) from single recombinant isozyme PK-C α. It counts as binding. The conditions noted are these: for Ki: PK-C α. As for the experimental part:
This recombinant PK-C α was expressed in baculovirus and isolated as described by Kazanietz et al. (Mol. Pharmacol. 44: 298-307 (1993)).
The affinity of these ligands for PK-C was assessed in terms of their ability to displace bound [^3 H-20]-phorbol-12,13-dibutyrate (PDBU) from a purified product containing the single isozyme PK-C α.

Data set [2] concerns mouse skin tumor promotion. The conditions noted are these: in vivo; cited from earlier work.
Data set [3] concerns binding of epidermal growth factor. Put plainly: inhibition of binding of epidermal growth factor in intact cells. It counts as cell-based. The conditions noted are these: read-out: ED50, inhibition of binding of epidermal growth factor. How it is done:
(§1) The biological activity of compound 3.8 was evaluated further. […] Finally, the ability of compound 3.8 to down-regulate PK-C α and PK-C δ in primary mouse keratinocytes after 24 hours was examined.

Data set [4] deals with T2, PK-C α (Mus musculus, UniProt P20444).
T2 construct: in primary mouse keratinocytes; endogenous in cells; host or cells: primary mouse keratinocytes
Description: down-regulation of PK-C α in primary mouse keratinocytes. It counts as cell-based. The conditions noted are these: even after 24 h. As for the experimental part: as §1

The subject of another data set is CD-1 mouse skin. Put plainly: induction of acute edema or hyperplasia in CD-1 mouse skin. The conditions noted are these: 10-100 μg. The class given is in vivo.
The test system of a further data set is PK-C.eta. Put plainly: down-regulation of PK-C.eta. in primary mouse keratinocytes. The class given is cell-based. The conditions noted are these: after 24 hours.
The next data set has as its system PK-Cε. Description: down-regulation of PK-Cε in primary mouse keratinocytes. The class given is cell-based. The conditions noted are these: after 24 hours.
Data set [5] concerns the target T1, PK-C α. Description: stimulation of phosphorylation of the α-pseudosubstrate peptide (activation of PK-C α). It counts as biochemical. The conditions noted are these: read-out: ED50, stimulation of phosphorylation of the α-pseudosubstrate peptide.
Data set [6] is described as follows: stability to racemization / acyl migration. It counts as physicochemical. The conditions noted are these: silica or neutral alumina.
Another data set relates to melanoma. The conditions noted are these: in vivo; cited from earlier work.
The mark [7] stands for this setting: Table IV, read-out: Apparent Ki for chiral ligands having an α-alkylidene chain as inhibitors of PDBU binding to PK-C.
[8] abbreviates: Table II, racemic and chiral compounds, read-out: Apparent Ki for ligands as inhibitors of PDBU binding to PK-C.
Setting [9] is: read-out: Ki, displacement of bound PDBU.
[10] abbreviates: Table I, read-out: Apparent Ki for ligands as inhibitors of PDBU binding to PK-C.

Turning to `CCCCCCCC/C=C\CCCCCCC/C=C1/C[C@](/C=C/C(=O)OC)(CO)OC1=O` [drawing 36], on PK-C α [1] (setting [7]), the Ki came out at 0.0113 ± 0.00072 µM. For `CC(=O)OC12CC(C)C3(O)C(C=C(CO)CC4(O)C(=O)C(C)=CC43)C1C2(C)C` (stereo not shown) [12-deoxyphorbol-13-acetate], in [2], the “inhibition of mouse skin tumor promotion” value is recorded as 97%. Consider `CCCCCCCCCCCCCC(=O)OC[C@]1(CO)CCC(=O)O1` [drawing 16], for which the Ki at PK-C α [1] (setting [8]) worked out at 0.096 ± 0.00217 µM.

Regarding `CCCCCCCC/C=C\CCCCCCC/C=C1/C[C@](/C=C/C(=O)OC)(CO)OC1=O` [Compound 3.8, (S)-5-Hydroxymethyl-5-[2-(methoxycarbonyl)ethenyl]-3-{(Z)-[(Z)-9-octadecenoylidene]}tetrahydro-2-furanone], the IC50 in data set [3] amounted to 1 µM. Also, the loss in activity entry on PK-C α [4] is listed as “No loss in activity was observed”. Moreover, the “induction of acute edema” value with CD-1 mouse skin (6 h) is reported as “did not induce acute edema”. Further, the induction of hyperplasia result with CD-1 mouse skin (72 h) was “did not induce acute edema (10-100 μg, 6 h) or hyperplasia”. Also, the “down-regulation of PK-C.eta.” value in the data set with PK-C.eta. was “did not down-regulate”. Also, the “down-regulation of PK-Cε” value in the data set on PK-Cε is “did not down-regulate”. Further, at PK-C α [5], the EC50 came out at 0.163 ± 0.0167 µM. Besides, the “binding affinity compared with the corresponding α-alkylidenes 3.9 and 3.10” value on PK-C α [1] (Table IV) is on record as “equivalent”.

In the case of `CCCCCCCCCCCCCC(=O)OCC1(CO)CCC(=O)O1` (stereo not shown), the Ki at PK-C α [1] (setting [8]) worked out at 0.138 ± 0.024 µM. On to `CCCCCCCCCCCCCC(=O)OC[C@]1(CO)CCC(=O)O1` [Compound 2.2, (R)-5-[(tetradecanoyloxy)methyl]-5-(hydroxymethyl)-tetrahydro-2-furanone], for which the “racemization on exposure to chromatographic conditions” value in [6] is listed as “rapid racemization”. In addition, the Ki at PK-C α [1] (setting [9]) is 0.096 µM.

`CCCCCCCC/C=C\CCCCCCC/C=C1\C[C@](/C=C/C(=O)OC)(CO)OC1=O` [drawing 35]: the Ki on PK-C α [1] (setting [7]) is 0.0201 ± 0.0029 µM. In the case of `CCCCCCCC/C=C\CCCCCCC/C=C1\C[C@](/C=C/C(=O)OC)(CO)OC1=O` [Compound 3.7, (S)-5-Hydroxymethyl-5-[2-(methoxycarbonyl)ethenyl]-3-{(E)-[(Z)-9-octadecenoylidene]}tetrahydro-2-furanone], the “binding affinity compared with the corresponding α-alkylidenes 3.9 and 3.10” value at PK-C α [1] (Table IV) was “equivalent”. Take `CCCCCCCCCCCCCC(=O)OCC1(CO)CCC(=O)O1` (racemic) [Compound 3e, 5-[(tetradecanoyloxy)methyl]-5-hydroxymethyl-tetrahydro-2-furanone]: the Ki at PK-C α [1] (setting [9]) is 0.138 µM. Take `CCCCCCCCCCCCCCC1CC(CO)(COC(C)=O)OC1=O` (stereo not shown) [Compound 12, 5-(acetyloxymethyl)-5-(hydroxymethyl)-3-(tetradecanyl)-tetrahydro-2-furanone]: the Ki at PK-C α [1] (setting [10]) was determined as 0.075 ± 0.00254 µM.

For the compound `CCCC=CC=CC(=O)OC1C(=CC(=O)OC)CC2CC(C(C)O)OC(=O)CC(O)CC3CC(OC(C)=O)C(C)(C)C(O)(CC4CC(=CC(=O)OC)CC(C=CC(C)(C)C1(O)O2)O4)O3` (stereo not shown) [bryostatin-1], the “results in clinical trials for treatment of melanoma” value in the data set on melanoma was “promising results”. On to `CCCCCCCC/C=C\CCCCCCCC(=O)OCC1(CO)CCC(=O)O1` (stereo not shown) [Compound 3f, 5-{[(Z)-9-octadecenoyloxy]methyl}-5-hydroxymethyl-tetrahydro-2-furanone], for which, on PK-C α [1] (setting [10]), the Ki amounted to 0.096 ± 0.00745 µM. With `CCCCCCCCCCCCC/C=C1\C(=O)OCC1(CO)COC(C)=O` (stereo not shown) [Compound 14c, (Z)-4-[(acetoxy)methyl]-4-hydroxymethyl-3-(tetradecanylidene)-tetrahydro-2-furanone], on PK-C α [1] (setting [10]), the Ki amounted to 6.51 µM. As for `CCCCCCCCCCCCCC(=O)OCC1(CO)COC(=O)C1` (stereo not shown) [Compound 9c, 4-Hydroxymethyl-4-(tetradecanoyloxy)methyl-4-vinyltetrahydro-2-furanone], the Ki on PK-C α [1] (setting [10]) stood at 9.81 µM.
